System: 282377-053-R-J1-PDC complex spheroids, viability
Assay: Anticancer human tumor 282377-053-R-J1-PDC patient-derived colon adenocarcinoma cell line growth inhibition [GQUAD]
Conditions: for IC50: curve of first compound; for viability, T/C: stronger effect = lower value
In short: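 Viability of tumor cells grown as complex spheroids with endothelial and stromal cells, exposed to drug combinations. Top concentration at or near clinical Cmax (else 10 microM), diluted in half-log increments.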

[1] = second compound 0.0316 µM, first compound 0.0316 µM
[2] = second compound 0.0316 µM, first compound 0.1 µM
[3] = second compound 0.0316 µM, first compound 0.316 µM
[4] = second compound 0.0316 µM, first compound 1 µM
[5] = second compound 0.0316 µM, first compound 3.16 µM
[6] = second compound 0.0316 µM, first compound 10 µM
[7] = second compound 0.1 µM, first compound 0.0316 µM
[8] = second compound 0.1 µM, first compound 0.1 µM
[9] = second compound 0.1 µM, first compound 0.316 µM
[10] = second compound 0.1 µM, first compound 1 µM
[11] = second compound 0.1 µM, first compound 3.16 µM
[12] = second compound 0.1 µM, first compound 10 µM
[13] = second compound 0.316 µM, first compound 0.0316 µM
[14] = second compound 0.316 µM, first compound 0.1 µM
[15] = second compound 0.316 µM, first compound 0.316 µM
[16] = second compound 0.316 µM, first compound 1 µM
[17] = second compound 0.316 µM, first compound 3.16 µM
[18] = second compound 0.316 µM, first compound 10 µM
[19] = second compound 1 µM, first compound 0.0316 µM
[20] = second compound 1 µM, first compound 0.1 µM
[21] = second compound 1 µM, first compound 0.316 µM
[22] = second compound 1 µM, first compound 1 µM
[23] = second compound 1 µM, first compound 3.16 µM
[24] = second compound 1 µM, first compound 10 µM
[25] = second compound 3.16 µM, first compound 0.0316 µM
[26] = second compound 3.16 µM, first compound 0.1 µM
[27] = second compound 3.16 µM, first compound 0.316 µM
[28] = second compound 3.16 µM, first compound 1 µM
[29] = second compound 3.16 µM, first compound 3.16 µM
[30] = second compound 3.16 µM, first compound 10 µM
[31] = second compound 10 µM, first compound 0.0316 µM
[32] = second compound 10 µM, first compound 0.1 µM
[33] = second compound 10 µM, first compound 0.316 µM
[34] = second compound 10 µM, first compound 1 µM
[35] = second compound 10 µM, first compound 3.16 µM
[36] = second compound 10 µM, first compound 10 µM
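Also: spheroids exposed to compounds for 7 days before readout.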
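For viability, T/C in this document: percent of vehicle DMSO control viability with 100% = untreated-like growth.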

## CC1COCCN1c1cc(C2(O)CC3CCC(C2)O3)c2cnn(-c3ccn[nH]3)c2n1 (centres undefined) + Cc1cnc(CNC(=O)c2c(=O)c3ccc(N4CCCN(C)CC4)nc3n3c2sc2ccccc23)cn1
Second compound 0.0316 µM
  IC50: 134 nM
Second compound 0.1 µM
  IC50: 73.9 nM
Second compound 0.316 µM
  IC50: < 31.6 nM
Second compound 1 µM
  IC50: < 31.6 nM
Second compound 3.16 µM
  IC50: < 31.6 nM
Second compound 10 µM
  IC50: < 31.6 nM
[1]
  viability, T/C: 96.4%
[2]
  viability, T/C: 49.5%
[3]
  viability, T/C: 39.7%
[4]
  viability, T/C: 24.6%
[5]
  viability, T/C: 20.5%
[6]
  viability, T/C: 12.6%
[7]
  viability, T/C: 71.9%
[8]
  viability, T/C: 41.3%
[9]
  viability, T/C: 27.6%
[10]
  viability, T/C: 26.8%
[11]
  viability, T/C: 21.8%
[12]
  viability, T/C: 15.1%
[13]
  viability, T/C: 50.1%
[14]
  viability, T/C: 34.8%
[15]
  viability, T/C: 28.8%
[16]
  viability, T/C: 22.9%
[17]
  viability, T/C: 17.7%
[18]
  viability, T/C: 15%
[19]
  viability, T/C: 42%
[20]
  viability, T/C: 25.9%
[21]
  viability, T/C: 28.7%
[22]
  viability, T/C: 23.1%
[23]
  viability, T/C: 21.8%
[24]
  viability, T/C: 14.3%
[25]
  viability, T/C: 33.6%
[26]
  viability, T/C: 23.4%
[27]
  viability, T/C: 23.8%
[28]
  viability, T/C: 21.7%
[29]
  viability, T/C: 18.6%
[30]
  viability, T/C: 10.6%
[31]
  viability, T/C: 32.8%
[32]
  viability, T/C: 20.1%
[33]
  viability, T/C: 22.2%
[34]
  viability, T/C: 18%
[35]
  viability, T/C: 17%
[36]
  viability, T/C: 0.6%

## O=c1[nH]cc(F)c(=O)[nH]1 + CN(C)c1ccc(Nc2c3ccc(NC(=O)CCN4CCCC4)cc3nc3cc(NC(=O)CCN4CCCC4)ccc23)cc1
Second compound 0.0316 µM
  IC50: > 10000 nM
Second compound 0.1 µM
  IC50: > 10000 nM
Second compound 0.316 µM
  IC50: > 10000 nM
Second compound 1 µM
  IC50: > 10000 nM
Second compound 3.16 µM
  IC50: > 10000 nM
Second compound 10 µM
  IC50: > 10000 nM
[1]
  viability, T/C: 95.5%
[2]
  viability, T/C: 87.1%
[3]
  viability, T/C: 110%
[4]
  viability, T/C: 81%
[5]
  viability, T/C: 73.4%
[6]
  viability, T/C: 74.1%
[7]
  viability, T/C: 101%
[8]
  viability, T/C: 93.1%
[9]
  viability, T/C: 104%
[10]
  viability, T/C: 88.8%
[11]
  viability, T/C: 74.5%
[12]
  viability, T/C: 73.2%
[13]
  viability, T/C: 106%
[14]
  viability, T/C: 94.3%
[15]
  viability, T/C: 106%
[16]
  viability, T/C: 96%
[17]
  viability, T/C: 67.8%
[18]
  viability, T/C: 73.8%
[19]
  viability, T/C: 108%
[20]
  viability, T/C: 94.4%
[21]
  viability, T/C: 106%
[22]
  viability, T/C: 89.9%
[23]
  viability, T/C: 77.8%
[24]
  viability, T/C: 69%
[25]
  viability, T/C: 83.1%
[26]
  viability, T/C: 75.7%
[27]
  viability, T/C: 89.2%
[28]
  viability, T/C: 79.1%
[29]
  viability, T/C: 68.2%
[30]
  viability, T/C: 64.5%
[31]
  viability, T/C: 92.8%
[32]
  viability, T/C: 81.3%
[33]
  viability, T/C: 88.5%
[34]
  viability, T/C: 81.7%
[35]
  viability, T/C: 70.1%
[36]
  viability, T/C: 57.9%
